Legend:
Test in all cases: relative viability (nuclei count vs DMSO), 5 days (fraction); higher = more cells survive
[1] = compound: Cc1ccc2nc(NCCN)c3ncc(C)n3c2c1 + Cc1cc(Nc2cc(N3CCN(C)CC3)nc(Sc3ccc(NC(=O)C4CC4)cc3)n2)n[nH]1 [Tozasertib] (partner 0.1 µM)
Procedure, shortened: (§1)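 Relative viability is defined as nuclei in treated wells over nuclei in vehicle wells. Duplicate plates were run and medians reported. Lung cancer cell lines in 1536-well plates were dosed by pin tool one day after seeding, with one drug or with a fixed anchor-drug dose plus five library-drug doses (not always all listed) in √10 steps, and nuclei were counted after 5 days.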

[2] = compound: Cc1ccc2nc(NCCN)c3ncc(C)n3c2c1 + COc1cccc2cc(-c3nc([C@H]4CC[C@H](C(=O)O)CC4)n4ncnc(N)c34)[nH]c12 [OSI-027] (partner 0.5 µM)
Procedure, shortened: as §1

[3] = compound: Cc1ccc2nc(NCCN)c3ncc(C)n3c2c1 + NC(=O)Nc1cc(-c2cccc(F)c2)sc1C(=O)N[C@H]1CCCNC1 [AZD7762] (partner 0.2 µM)
Procedure, shortened: as §1

Salubrinal + Alpelisib = compound: O=C(/C=C/c1ccccc1)NC(NC(=S)Nc1cccc2cccnc12)C(Cl)(Cl)Cl [Salubrinal] + Cc1nc(NC(=O)N2CCC[C@H]2C(N)=O)sc1-c1ccnc(C(C)(C)C(F)(F)F)c1 [Alpelisib] (partner 2 µM)
Procedure, shortened: as §1

Row | Cell Line | relative viability ([1]; first compound 0.04 µM) | relative viability ([1]; first compound 0.1265 µM) | relative viability ([1]; first compound 0.4 µM) | relative viability ([1]; first compound 1.265 µM) | relative viability ([1]; first compound 4 µM) | relative viability ([2]; first compound 0.04 µM) | relative viability ([2]; first compound 0.1265 µM) | relative viability ([2]; first compound 0.4 µM) | relative viability ([2]; first compound 1.265 µM) | relative viability ([2]; first compound 4 µM) | relative viability ([3]; first compound 0.04 µM) | relative viability ([3]; first compound 0.1265 µM) | relative viability ([3]; first compound 0.4 µM) | relative viability ([3]; first compound 1.265 µM) | relative viability ([3]; first compound 4 µM) | relative viability (Salubrinal + Alpelisib; first compound 0.08 µM) | relative viability (Salubrinal + Alpelisib; first compound 0.253 µM) | relative viability (Salubrinal + Alpelisib; first compound 0.8 µM) | relative viability (Salubrinal + Alpelisib; first compound 8 µM) | relative viability (Salubrinal + Alpelisib; first compound 2.53 µM)
1 | LCLC-97TM1 | 0.201 | 0.215 | 0.177 | 0.218 | 0.187 | 0.592 | 0.463 | 0.452 | 0.828 | 0.437 | 0.409 | 0.321 | 0.216 | 0.269 | 0.225 | 0.258 | 0.302 | 0.254 | 0.276 | –
2 | LCLC-103H | 0.426 | 0.525 | 0.384 | 0.427 | 0.439 | 0.551 | 0.492 | 0.464 | 0.494 | 0.421 | 0.877 | 0.821 | 0.654 | 0.772 | 0.752 | 0.953 | 0.917 | 1.05 | 0.932 | 1.02
3 | LK-2 | 0.171 | 0.174 | 0.152 | 0.154 | 0.179 | 0.173 | 0.202 | 0.182 | 0.188 | 0.18 | 0.393 | 0.612 | – | – | 0.347 | 1.33 | 1.07 | 1.23 | 1.08 | 1.19
4 | LOU-NH91 | 0.654 | 0.628 | 0.638 | 0.626 | 0.617 | 0.795 | 0.726 | 0.708 | 0.762 | 0.668 | 0.869 | 0.789 | 0.753 | 0.702 | 0.733 | 0.781 | 0.692 | 0.72 | 0.697 | 0.749
5 | LU99A | 0.308 | 0.292 | 0.248 | 0.298 | 0.263 | 0.34 | 0.268 | 0.283 | 0.273 | 0.298 | 0.485 | 0.425 | 0.314 | 0.286 | 0.354 | 0.644 | 0.559 | 0.66 | 0.53 | 0.476
6 | LXF-289 | 0.186 | 0.192 | 0.163 | 0.178 | 0.212 | 0.898 | 0.79 | 0.901 | 0.872 | 0.776 | 1.19 | 1.1 | 1.08 | 1.06 | 1.12 | 1.13 | 0.956 | 1.13 | 0.966 | 1.08
7 | NCI-H23 | 0.707 | 0.403 | 0.451 | 0.301 | 0.422 | 0.828 | 0.709 | 0.54 | 0.607 | 0.531 | 0.282 | 0.297 | 0.261 | 0.228 | 0.22 | 0.839 | 0.717 | 0.763 | 0.976 | 0.685
8 | NCI-H322M | 0.553 | 0.452 | 0.528 | 0.547 | 0.462 | 0.641 | 0.544 | 0.481 | 0.568 | 0.526 | 0.446 | 0.703 | 0.638 | 0.552 | 0.605 | 0.783 | 0.849 | 0.863 | 0.739 | 0.788
9 | NCI-H358 | 0.11 | 0.134 | 0.0909 | 0.101 | 0.098 | 0.807 | 0.708 | 0.694 | 0.797 | 0.858 | 0.51 | 0.573 | 0.413 | 0.515 | 0.401 | 1.03 | 0.676 | 0.886 | 0.675 | 0.792
10 | NCI-H441 | 0.605 | 0.631 | 0.716 | 0.625 | 0.685 | 0.615 | 0.785 | 0.684 | 0.654 | 0.581 | 1.35 | 1.09 | 1.05 | 1.25 | 1.19 | 0.832 | 0.61 | 1.01 | 0.645 | 0.709
11 | NCI-H460 | 0.453 | 0.481 | 0.603 | 0.312 | 0.386 | 0.674 | 0.598 | 0.67 | 0.718 | 0.537 | 0.614 | 0.636 | 0.631 | 0.7 | 0.541 | 0.615 | 0.358 | 0.433 | 0.451 | 0.419
12 | NCI-H596 | 1.16 | 1.01 | 0.922 | 0.883 | 0.863 | 0.709 | 0.749 | 0.617 | 0.709 | 0.737 | 1.07 | 1.08 | 1.04 | 0.915 | 1.11 | 0.55 | 0.426 | 0.441 | 0.528 | 0.572
13 | NCI-H647 | 0.246 | 0.306 | 0.356 | 0.281 | 0.128 | 0.566 | 0.607 | 0.637 | 0.634 | 0.719 | 0.44 | 0.517 | 0.38 | 0.574 | 0.148 | 1.47 | 0.438 | 1.54 | 1.08 | 1.25
14 | NCI-H650 | 0.725 | 0.727 | 0.752 | 0.615 | 0.746 | 0.558 | 0.585 | 0.443 | 0.538 | 0.513 | 0.95 | 0.901 | 0.681 | 0.958 | 1.03 | 1.29 | 1.14 | 1.14 | 1.04 | 1.11
15 | NCI-H727 | 0.599 | 0.688 | 0.704 | 0.578 | 0.641 | 0.852 | 0.707 | 0.754 | 0.645 | 0.585 | 0.611 | – | 0.609 | 0.595 | 0.573 | 0.768 | 0.453 | 0.63 | 0.561 | 0.602

— the supplement of paper PMC10307832
